Biological target: influenza PA endonuclease (PAN) (Influenza A virus, UniProt C3W5S0, DEL52-63/E64G)
Assay type: biochemical, influenza A (A/California/04/2009) H1N1

`Cc1cc(=O)c(O)c(C(=O)O)o1` [Compound 1, 3-Hydroxy-6-methyl-4-oxo-4H-pyran-2-carboxylic acid] was tested, and the “Change in activity with presence or absence of excess metal ions” value was “no change”.

In the case of `Cc1cc(=O)c(O)c(C(=O)O)[nH]1` [Compound 17, 3-Hydroxy-6-methyl-4-oxo-1,4-dihydropyridine-2-carboxylic acid], the “Change in activity with presence or absence of excess metal ions” value is reported as “no change”.
